A short description of experiment [1]: Inhibition of Escherichia coli thymidine phosphorylase expressed in Escherichia coli preincubated for 10 mins followed by thymidine substrate addition measured for 10 mins by spectrophotometric method.
A short description of experiment [2]: Non-competitive inhibition of Escherichia coli thymidine phosphorylase expressed in Escherichia coli preincubated for 10 mins followed by varying levels of thymidine substrate addition by Lineweaver-Burk plot analysis.
The target in experiment [3] is T1, Thymidine phosphorylase (Escherichia coli K-12, UniProt P07650). Briefly: Inhibition of Escherichia coli K12 thymidine phosphorylase expressed in Escherichia coli preincubated for 10 mins followed by substrate addition measured up to 30 mins by spectrophotometric method.
T1 sequence (P07650 whole entry): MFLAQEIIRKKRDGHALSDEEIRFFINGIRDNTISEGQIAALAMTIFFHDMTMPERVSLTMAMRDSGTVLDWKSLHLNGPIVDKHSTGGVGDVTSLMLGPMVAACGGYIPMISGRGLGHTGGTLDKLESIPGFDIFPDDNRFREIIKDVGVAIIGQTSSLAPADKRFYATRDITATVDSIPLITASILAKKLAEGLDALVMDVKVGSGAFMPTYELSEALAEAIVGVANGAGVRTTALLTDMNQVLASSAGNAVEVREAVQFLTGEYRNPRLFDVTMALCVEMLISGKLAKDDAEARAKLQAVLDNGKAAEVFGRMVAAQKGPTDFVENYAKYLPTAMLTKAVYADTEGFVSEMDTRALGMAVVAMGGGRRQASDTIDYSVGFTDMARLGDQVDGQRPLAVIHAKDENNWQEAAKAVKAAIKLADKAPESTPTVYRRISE
The target of experiment [4] is T2, Thymidine phosphorylase (Homo sapiens, UniProt P19971).
T2 sequence (P19971 whole entry): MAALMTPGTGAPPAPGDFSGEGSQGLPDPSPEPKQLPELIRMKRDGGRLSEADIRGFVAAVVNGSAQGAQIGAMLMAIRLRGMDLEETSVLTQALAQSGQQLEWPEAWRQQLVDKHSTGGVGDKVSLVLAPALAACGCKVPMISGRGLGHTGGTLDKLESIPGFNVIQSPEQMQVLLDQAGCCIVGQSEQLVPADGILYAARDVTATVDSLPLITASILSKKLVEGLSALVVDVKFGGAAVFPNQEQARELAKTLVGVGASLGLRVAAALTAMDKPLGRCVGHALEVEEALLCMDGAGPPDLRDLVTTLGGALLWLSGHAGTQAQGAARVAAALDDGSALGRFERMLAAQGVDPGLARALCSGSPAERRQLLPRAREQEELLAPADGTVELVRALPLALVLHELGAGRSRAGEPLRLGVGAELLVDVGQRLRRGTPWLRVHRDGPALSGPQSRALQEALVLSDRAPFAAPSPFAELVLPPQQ
The experiment can be described thus: Inhibition of human thymidine phosphorylase using thymidine as substrate preincubated for 30 mins followed substrate addition measured up to 30 mins.

The target in experiment [5] is T1, Thymidine phosphorylase. The experiment can be described thus: Inhibition of Escherichia coli K12 thymidine phosphorylase expressed in Escherichia coli using thymidine as substrate addition measured up to 20 mins by Uv-vis spectrophotometric method.
For experiment [6], the target named is Thymidine phosphorylase (Escherichia coli K-12) (UniProt P07650). Briefly: Potency index, ratio of 7-DX IC50 to compound IC50 for Escherichia coli K12 thymidine phosphorylase expressed in Escherichia coli.
Sequence of Thymidine phosphorylase (Escherichia coli K-12) (P07650 whole entry, looked up): as the sequence (P07650 whole entry) above

For `O=c1[nH]c(-c2ccc(O)c(O)c2)nc2ccccc12`, half-maximal inhibition in experiment [1] (IC50) was put at 42.9 µM. The Ki – broadly, the equilibrium dissociation constant of an inhibitor or competing ligand from its target – in experiment [2] turned out to be 52.3 µM.

For the compound `Oc1ccc(-c2nnc(S)o2)cc1`, it took 38.2 µM to reach half-maximal inhibition in experiment [3] (IC50).

In the case of `O=C(OCc1cc(O)ccc1O[C@@H]1O[C@H](CO)[C@@H](O)[C@@H](OC(=O)c2ccc(O)cc2)[C@H]1O)c1ccccc1`, in experiment [4], it took 226 µM to reach half-maximal inhibition (IC50).

Consider `O=c1[nH]c(SCc2ccccc2)nc2nc(-c3ccccc3)nn12`, for which the concentration for half-maximal inhibition (IC50) (commonly the concentration that gives 50% inhibition) in experiment [5] was determined as 111 µM.

In turn, `Oc1cc(O)c(/C=N/Nc2cnc3ccccc3n2)cc1O` yielded an IC50 in experiment [3] of 3.2 µM. Also, in experiment [6], the Ratio IC50 was 12.

The values are drawn from ChEMBL document CHEMBL3875181, “Recent discovery of non-nucleobase thymidine phosphorylase inhibitors targeting cancer” (Eur J Med Chem, 2016).
